{"source": "patent US9060515B2", "about": "“Heterocyclic urea compounds” (BIOTA EUROPE LTD, priority 2011, dated 2015)"}
{"tested_on": "S. pyogenes (ATCC 51339)", "experiment": "Antibacterial susceptibility testing (MIC, broth microdilution or agar dilution), S. pyogenes", "assay_type": "cell-based", "conditions": "Streptococcus pyogenes, ATCC51339; read-out: S. pyogenes (ATCC 51339) minimal inhibitory concentration (MIC)", "description": "(§1) Compounds of the invention were tested for antimicrobial activity by susceptibility testing in liquid or on solid media. MICs for compounds against each strain were determined by the broth microdilution or agar dilution method according to the guidelines of the Clinical Laboratories and Standards Institute, formerly the National Committee for Clinical Laboratory Standards (Clinical Laboratories and Standards Institute. Methods for Dilution Antimicrobial Susceptibility Tests for Bacteria That Grow Aerobically; Approved Standard—Seventh Edition. Document M7-A7. CLSI, Wayne, Pa., 2006; Clinical Laboratories and Standards Institute. The Gram positive bacterial strains tested include S. aureus (Staphylococcus aureus (Isolate ID ATCC 29213)), E. faecalis (Enterococcus faecalis (Isolate ID ATCC 29212)) and S. pyogenes (Streptococcus pyogenes (Isolate ID ATCC 51339)). The Gram negative bacterial strains tested include H. influenzae (Haemophilus influenzae (Isolate ID ATCC 49247)).", "units": {"MIC": "µg/mL"}}
{"compound": "CCNC(=O)Nc1cc(Nc2ccccc2)c(C(=O)Nc2cccc(C(F)(F)F)c2)cn1", "note": "[Compound 48, 6-(3-ethylureido)-4-(phenylamino)-N-(3-(trifluoromethyl)phenyl)nicotinamide]", "MIC": 8}
{"compound": "CCNC(=O)Nc1cc(Nc2ccccc2)c(C(=O)Nc2cncc(C(=O)O)c2)cn1", "note": "[Compound 84, 5-(6-(3-ethylureido)-4-(phenylamino)nicotinamido)nicotinic acid]", "MIC": 16}
{"compound": "CCNC(=O)Nc1cc(Nc2ccc(CO)cc2)c(C(=O)Nc2cccnc2)cn1", "note": "[Compound 128, 6-(3-ethylureido)-4-(4-(hydroxymethyl)phenylamino)-N-(pyridin-3-yl)nicotinamide]", "MIC": "≤ 1"}
{"compound": "CCNC(=O)Nc1cc(Nc2ccccc2)c(C(=O)Nc2ccc(CCCO)cc2)cn1", "note": "[Compound 117, 6-(3-ethylureido)-N-(4-(3-hydroxypropyl)phenyl)-4-(phenylamino)nicotinamide]", "MIC": "≤ 1"}
{"compound": "CCNC(=O)Nc1cc(Nc2cccc(OC)c2)c(C(=O)Nc2cccnc2)cn1", "note": "[Compound 111, 6-(3-ethylureido)-4-(3-methoxyphenylamino)-N-(pyridin-3-yl)nicotinamide]", "MIC": "≤ 1"}
{"compound": "CCNC(=O)Nc1cc(Nc2ccccc2)c(C(=O)Nc2ccc(CCC(C)=O)cc2)cn1", "note": "[Compound 122, 6-(3-Ethylureido)-N-(4-(3-oxobutyl)phenyl)-4-(phenylamino)nicotinamide]", "MIC": "≤ 1"}
{"compound": "CCNC(=O)Nc1cc(Nc2ccc(C(N)=O)cc2)c(C(=O)Nc2cccnc2)cn1", "note": "[Compound 125, 4-(4-carbamoylphenylamino)-6-(3-ethylureido)-N-(pyridin-3-yl)nicotinamide]", "MIC": "≤ 1"}
{"compound": "CCNC(=O)Nc1cc(Nc2ccccc2)c(C(=O)Nc2ccc(CCC(N)=O)cc2)cn1", "note": "[Compound 118, N-(4-(3-amino-3-oxopropyl)phenyl)-6-(3-ethylureido)-4-(phenylamino)nicotinamide]", "MIC": "≤ 1"}
{"compound": "CCNC(=O)Nc1cc(Nc2ccc(CC(=O)O)cc2)c(C(=O)Nc2cccnc2)cn1", "note": "[Compound 114, 2-(4-(2-(3-ethylureido)-5-(pyridin-3-ylcarbamoyl)pyridin-4-ylamino)phenyl)acetic acid]", "MIC": 8}
{"compound": "CCNC(=O)Nc1cc(Nc2ccc(=O)n(C)c2)c(C(=O)Nc2cccnc2)cn1", "note": "[Compound 108, 6-(3-ethylureido)-4-(1-methyl-6-oxo-1,6-dihydropyridin-3-ylamino)-N-(pyridin-3-yl)nicotinamide]", "MIC": 16}
{"compound": "CCNC(=O)Nc1cc(Nc2ccccc2)c(C(=O)Nc2ccc(OC)cc2)cn1", "note": "[Compound 33, 6-(3-ethylureido)-N-(4-methoxyphenyl)-4-(phenylamino)nicotinamide]", "MIC": 16}
{"compound": "CCNC(=O)Nc1cc(Nc2ccccc2)c(C(=O)Nc2ccncc2)cn1", "note": "[Compound 42, 6-(3-ethylureido)-4-(phenylamino)-N-(pyridin-4-yl)nicotinamide]", "MIC": "≤ 1"}
{"compound": "CCNC(=O)Nc1cc(Nc2ccccc2)c(C(=O)Nc2c(C)noc2C)cn1", "note": "[Compound 50, N-(3,5-dimethylisoxazol-4-yl)-6-(3-ethylureido)-4-(phenylamino)nicotinamide]", "MIC": 4}
{"compound": "CCNC(=O)Nc1cc(Nc2ccccc2)c(C(=O)Nc2ccnnc2)cn1", "note": "[Compound 64, 6-(3-ethylureido)-4-(phenylamino)-N-(pyridazin-4-yl)nicotinamide]", "MIC": "≤ 1"}
{"compound": "CCNC(=O)Nc1cc(Nc2ccc(C(=O)O)cc2)c(C(=O)Nc2cccnc2)cn1", "note": "[Compound 16, 4-(2-(3-Ethylureido)-5-(pyridin-3-ylcarbamoyl)pyridin-4-ylamino)benzoic acid]", "MIC": "≤ 1"}
{"compound": "CCNC(=O)Nc1cc(Nc2ccc(C(=O)NC)cc2)c(C(=O)Nc2cccnc2)cn1", "note": "[Compound 126, 6-(3-ethylureido)-4-(4-(methylcarbamoyl)phenylamino)-N-(pyridin-3-yl)nicotinamide]", "MIC": 2}
{"compound": "CCNC(=O)Nc1cc(Nc2cccc(C(=O)O)c2)c(C(=O)Nc2cccnc2)cn1", "note": "[Compound 87, 3-(2-(3-ethylureido)-5-(pyridin-3-ylcarbamoyl)pyridin-4-ylamino)benzoic acid]", "MIC": 8}
{"compound": "CCNC(=O)Nc1cc(Nc2ccc(C(=O)N(C)C)cc2)c(C(=O)Nc2cccnc2)cn1", "note": "[Compound 124, 4-(4-(dimethylcarbamoyl)phenylamino)-6-(3-ethylureido)-N-(pyridin-3-yl)nicotinamide]", "MIC": 4}
{"tested_on": "S. aureus (ATCC 29213)", "experiment": "Antibacterial susceptibility testing (MIC, broth microdilution or agar dilution), S. aureus", "assay_type": "cell-based", "conditions": "Staphylococcus aureus, ATCC29213; read-out: S. aureus (ATCC 29213) minimal inhibitory concentration (MIC)", "description": "as §1", "units": {"MIC": "µg/mL"}}
{"compound": "CCNC(=O)Nc1cc(Nc2cc(F)cc(F)c2)c(C(=O)Nc2ccc(Cc3nnn[nH]3)cc2)cn1", "note": "[Compound 209, 4-(3,5-difluoroanilino)-6-(ethylcarbamoylamino)-N-[4-(1H-tetrazol-5-ylmethyl)phenyl]pyridine-3-carboxamide]", "MIC": "≤ 1"}
{"compound": "CCNC(=O)Nc1cc(Nc2ccccc2)c(C(=O)Nc2cccc(C(F)(F)F)c2)cn1", "note": "[Compound 48, 6-(3-ethylureido)-4-(phenylamino)-N-(3-(trifluoromethyl)phenyl)nicotinamide]", "MIC": "≤ 1"}
{"compound": "CCNC(=O)Nc1cc(Nc2ccc(CO)cc2)c(C(=O)Nc2cccnc2)cn1", "note": "[Compound 128, 6-(3-ethylureido)-4-(4-(hydroxymethyl)phenylamino)-N-(pyridin-3-yl)nicotinamide]", "MIC": 8}
{"compound": "CCNC(=O)Nc1cc(Nc2ccccc2)c(C(=O)Nc2ccc(CCCO)cc2)cn1", "note": "[Compound 117, 6-(3-ethylureido)-N-(4-(3-hydroxypropyl)phenyl)-4-(phenylamino)nicotinamide]", "MIC": "≤ 1"}
{"compound": "CCNC(=O)Nc1cc(Nc2cccc(OC)c2)c(C(=O)Nc2cccnc2)cn1", "note": "[Compound 111, 6-(3-ethylureido)-4-(3-methoxyphenylamino)-N-(pyridin-3-yl)nicotinamide]", "MIC": "≤ 1"}
{"compound": "CCNC(=O)Nc1cc(Nc2ccccc2)c(C(=O)Nc2ccc(CCC(C)=O)cc2)cn1", "note": "[Compound 122, 6-(3-Ethylureido)-N-(4-(3-oxobutyl)phenyl)-4-(phenylamino)nicotinamide]", "MIC": "≤ 1"}
{"compound": "CCNC(=O)Nc1cc(Nc2cccc(C(F)(F)F)c2)c(C(=O)Nc2cccnc2)cn1", "note": "[Compound 141]", "MIC": "≤ 1"}
{"compound": "CCNC(=O)Nc1cc(Nc2cccnc2)c(C(=O)Nc2ccc(NCC3(C(=O)OC)CCC3)nc2)cn1", "note": "[Compound 156, methyl 1-[({5-[({6-[(ethylcarbamoyl)amino]-4-(pyridin-3-ylamino)pyridin-3-yl}carbonyl)amino]pyridin-2-yl}amino)methyl]cyclobutane carboxylate]", "MIC": 16}
{"compound": "CCNC(=O)Nc1cc(Nc2ccccc2)c(C(=O)Nc2ccc(CCC(N)=O)cc2)cn1", "note": "[Compound 118, N-(4-(3-amino-3-oxopropyl)phenyl)-6-(3-ethylureido)-4-(phenylamino)nicotinamide]", "MIC": 2}
{"compound": "CCNC(=O)Nc1cc(Nc2cccnc2)c(C(=O)Nc2ccc(CC(C)(C)C(=O)OC)cc2)cn1", "note": "[Compound 170, methyl 3-{4-[({6-[(ethylcarbamoyl)amino]-4-(pyridin-3-ylamino)pyridin-3-yl}carbonyl)amino]phenyl}-2,2-dimethylpropanoate]", "MIC": "≤ 1"}
{"compound": "CCNC(=O)Nc1cc(Nc2ccccc2)c(C(=O)Nc2ccc(OC)cc2)cn1", "note": "[Compound 33, 6-(3-ethylureido)-N-(4-methoxyphenyl)-4-(phenylamino)nicotinamide]", "MIC": 4}
{"compound": "CCNC(=O)Nc1cc(Nc2ccccc2)c(C(=O)Nc2ccncc2)cn1", "note": "[Compound 42, 6-(3-ethylureido)-4-(phenylamino)-N-(pyridin-4-yl)nicotinamide]", "MIC": "≤ 1"}
{"compound": "CCNC(=O)Nc1cc(Nc2cccnc2)c(C(=O)Nc2ccc(CCC(=O)O)cc2)cn1", "note": "[Compound 153, 3-{4-[({6-[(ethylcarbamoyl)ami-no]-4-(pyridin-3-ylamino)pyridin-3-yl}carbonyl)amino]phenyl}pro-opanoic acid]", "MIC": 16}
{"compound": "CCNC(=O)Nc1cc(Nc2ccc(C(F)(F)F)cc2)c(C(=O)Nc2cccnc2)cn1", "note": "[Compound 142]", "MIC": 2}
{"compound": "CCNC(=O)Nc1cc(Nc2cccc(F)c2)c(C(=O)Nc2cccnc2)cn1", "note": "[Compound 143]", "MIC": "≤ 1"}
{"compound": "CCNC(=O)Nc1cc(Nc2ccc(Cl)cc2)c(C(=O)Nc2ccc(-n3cc(CN)nn3)cc2)cn1", "note": "[Compound 194, N-{4-[4-(aminomethyl)-1H-1,2,3-triazol-1-yl]phenyl}-4-[(4-chlorophenyl)amino]-6-[(ethylcarbamoyl)amino]pyridine-3-carboxamide]", "MIC": 8}
{"compound": "CNC(=O)Nc1cc(Nc2ccccc2)c(C(=O)Nc2ccc(CCC(=O)O)cc2)cn1", "note": "[Compound 186, 3-{4-[({6-[(methylcarbamoyl)amino]-4-(phenylamino)pyridin-3-yl}carbonyl)amino]phenyl}propanoic acid]", "MIC": 32}
{"compound": "CCNC(=O)Nc1cc(Nc2ccc(Cl)cc2)c(C(=O)Nc2ccc(C#CC(C)(C)O)cc2)cn1", "note": "[Compound 185, 4-[(4-chlorophenyl)amino]-6-[(ethylcarbamoyl)amino]-N-[4-(3-hydroxy-3-methylbut-1-yn-1-yl)phenyl]pyridine-3-carboxamide]", "MIC": 8}
{"compound": "CCNC(=O)Nc1cc(Nc2ccc(OC)cc2)c(C(=O)Nc2ccc(CC(C)(C)C(=O)O)cc2)cn1", "note": "[Compound 208, 3-{4-[({6-[(ethylcarbamoyl)amino]-4-[(4-methoxyphenyl)amino]pyridin-3-yl}carbonyl)amino]phenyl}-2,2-dimethylpropanoic acid]", "MIC": "≤ 1"}
{"compound": "CCNC(=O)Nc1cc(Nc2ccccc2)c(C(=O)Nc2ccc(C#CCO)cc2)cn1", "note": "[Compound 135, 6-[(Ethylcarbamoyl)amino]-N-[4-(3-hydroxyprop-1-yn-1-yl)phenyl]-4-(phenylamino)pyridine-3-carboxamide]", "MIC": "≤ 1"}
{"compound": "CCNC(=O)Nc1cc(Nc2ccc(OC)nc2)c(C(=O)Nc2cccnc2)cn1", "note": "[Compound 145]", "MIC": 4}
{"compound": "CCNC(=O)Nc1cc(Nc2ccc(F)cc2)c(C(=O)Nc2cccnc2)cn1", "note": "[Compound 139]", "MIC": "≤ 1"}
{"compound": "CCNC(=O)Nc1cc(Nc2ccccc2F)c(C(=O)Nc2cccnc2)cn1", "note": "[Compound 144]", "MIC": "≤ 1"}
{"compound": "CCNC(=O)Nc1cc(Nc2ccc(C)nc2)c(C(=O)Nc2cccnc2)cn1", "note": "[Compound 167]", "MIC": 16}
{"compound": "CCNC(=O)Nc1cc(Nc2cccnc2)c(C(=O)Nc2ccc([C@@H]3C[C@H]3C(=O)O)cc2)cn1", "note": "[Compound 193]", "MIC": 32}
{"compound": "CCNC(=O)Nc1cc(Nc2cncc(OC)c2)c(C(=O)Nc2cccnc2)cn1", "note": "[Compound 174]", "MIC": 4}
{"compound": "CCNC(=O)Nc1cc(Nc2cccnc2)c(C(=O)Nc2ccc(CCC(=O)OC)cc2)cn1", "note": "[Compound 147]", "MIC": 4}
{"compound": "CCNC(=O)Nc1cc(Nc2ccnc(C)c2)c(C(=O)Nc2cccnc2)cn1", "note": "[Compound 162]", "MIC": 8}
{"compound": "CCNC(=O)Nc1cc(Nc2ccc(C)cc2)c(C(=O)Nc2cccnc2)cn1", "note": "[Compound 140]", "MIC": "≤ 1"}
{"compound": "CCNC(=O)Nc1cc(Nc2ccc(Cl)cc2)c(C(=O)Nc2ccc(N=[N+]=[N-])cc2)cn1", "note": "[Compound 132, N-(4-azidophenyl)-4-[(4-chlorophenyl)amino]-6-[(ethylcarbamoyl)amino]pyridine-3-carboxamide]", "MIC": 8}
{"compound": "CCNC(=O)Nc1cc(Nc2cncc(C)c2)c(C(=O)Nc2cccnc2)cn1", "note": "[Compound 157]", "MIC": 8}
{"compound": "CCNC(=O)Nc1cc(Nc2ccc(Cl)cc2)c(C(=O)Nc2cnc(NC3(C(=O)O)CCC3)nc2)cn1", "note": "[Compound 165, 1-({5-[({4-[(4-chlorophenyl)amino]-6-[(ethylcarbamoyl)amino]pyridin-3-yl}carbonyl)amino]pyrimidin-2-yl}amino) cyclobutanecarboxylic acid]", "MIC": 16}
